Consider 23 compounds from PubChem BioAssay (NCI).

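Values below derive from 48-hour exposures of cells grown in 96-well plates, with endpoints linearly interpolated between the two concentrations bracketing the appropriate inhibition level. At the GI50, growth is halved. TGI is the concentration that stops growth completely.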

One experiment concerns SNB-19 CNS. In words: NCI tumour cell line growth inhibition, 48 h.
As to `CCOC(=O)C1S(=O)(=O)OCCOS1(=O)=O`, the TGI was over 100 µM.
`COc1ccc(C(O)c2cc3c(N)c(C(=O)Nc4cccc5ccccc45)sc3nc2C)cc1` (configuration not stated): the GI50 is 469 nM and the TGI was over 100 µM.
`CCCC(=O)CC(C)C(=O)C(=O)NC12CC3CC(CC(C3)C1)C2` (configuration not stated): the TGI is over 100 µM.
Same read-out and setting: the value for `CCCCCC/C=C\CCCCCCCCC(=O)c1cccc(OC)c1OC` was over 100 µM.

The test system of another experiment is HCT-116 colon. Put plainly: NCI tumour cell line growth inhibition, 48 h.
In turn, `CCOC(=O)C1(C)CCC(C(C(=O)O)C(=O)O)CC1=O` (configuration not stated) yielded a TGI of over 100 µM.
Regarding `[O]=[V]([OH])([OH])[OH]`, the GI50 is over 100000 nM and the TGI was over 100 µM.
The compound `CC1NOC(=O)C1N=Nc1ccc(Cl)cc1Cl` (configuration not stated) showed a TGI of 52.5 µM.
With `COc1ccc(Nc2cnc3cc(N)cc(N)c3n2)cc1`, the GI50 was 23800 nM and the TGI came to 54.1 µM.
In the same order, the values of `COc1cc(/C=C/c2cc(/C=C/c3ccc(O)c(OC)c3)n(C(=O)c3ccccc3Br)n2)ccc1O` are 3060 nM and over 100 µM.
In the same order, the values of `S=C1SCN(Cc2ccccc2)CN1Cc1ccco1` are 1470 nM and 12.3 µM.
Turning to `O=C(c1cccs1)c1c(C(F)(F)F)n([O-])c2cc(Cl)c(Cl)cc2[n+]1=O`, the GI50 is 429 nM and the TGI was determined as 0.913 µM.
In the same order, the values of `COc1cc(-c2nccc3[nH]c(-c4ccc5cc[nH]c5c4)nc23)cc(OC)c1OC` are under 10 nM and 1.13 µM.
Turning to `COc1ccc2nc(NC(=O)C(=O)CC(=O)c3ccc([N+](=O)[O-])cc3)sc2c1`, the TGI was over 100 µM.
Turning to `COCCOC1=C(Cl)C(=O)c2ccccc2C1=O`, the GI50 was 1820 nM and the TGI came to 3.58 µM.
In the same order, the values of `CN1CCN(c2c(F)cc(NC3=C(Cl)C(=O)c4ncccc4C3=O)cc2F)CC1` are 1780 nM and 3.35 µM.
In the case of `Cc1cccc(Cn2cc(CO)c3cnccc32)c1`, the GI50 was 36800 nM and the TGI was over 100 µM.
Compound `O=C(CCCC(=O)Nc1ccc(Cl)cc1Cl)CC(=O)c1ccc2ccccc2c1` had a TGI of over 100 µM.
Still for that read-out and setting: the value for `OC(c1ccccc1Br)(c1ccccc1Br)C(F)(F)F` was 39.4 µM; that for `CCOC(=O)C1S(=O)(=O)OCCOS1(=O)=O` was over 100 µM.
On to `COc1ccc(C(O)c2cc3c(N)c(C(=O)Nc4cccc5ccccc45)sc3nc2C)cc1` (configuration not stated), for which the GI50 was 318 nM and the TGI was over 64 µM.
Compound `Cc1nc2ccccc2c(=O)n1/N=C(\N=Nc1ccccc1Cl)c1ccccc1Cl` displayed a TGI of over 100 µM.
The same measure, in the same setting: the value for `CCCCCC/C=C\CCCCCCCCC(=O)c1cccc(OC)c1OC` was over 100 µM.

For a further experiment, the system named is SK-OV-3 ovarian. In words: NCI tumour cell line growth inhibition, 48 h.
In the case of `CCOC(=O)C1(C)CCC(C(C(=O)O)C(=O)O)CC1=O` (configuration not stated), the TGI is over 100 µM.
`COC(=O)C1=C(C(=O)OC)C2(c3ccccc3)OC1(c1ccccc1)c1cc3ccccc3cc12`: the TGI came out at 24.4 µM.
Consider `[O]=[V]([OH])([OH])[OH]`, for which the GI50 was over 100 µM and the TGI was over 100 µM.
As for `CC1NOC(=O)C1N=Nc1ccc(Cl)cc1Cl` (configuration not stated), the TGI was determined as 77.2 µM.
Consider `COc1ccc(Nc2cnc3cc(N)cc(N)c3n2)cc1`, for which the GI50 is 28.2 µM and the TGI was 80.9 µM.
As to `COc1cc(/C=C/c2cc(/C=C/c3ccc(O)c(OC)c3)n(C(=O)c3ccccc3Br)n2)ccc1O`, the GI50 is 2.24 µM and the TGI was found to be 5.31 µM.
Turning to `O=C1NC(=O)C2C(=O)NC(=O)C1C2Cc1ccco1` (configuration not stated), the TGI was over 100 µM.
On to `S=C1SCN(Cc2ccccc2)CN1Cc1ccco1`, for which the GI50 is 12.9 µM and the TGI worked out at 52.7 µM.
In the same order, the values of `O=C(c1cccs1)c1c(C(F)(F)F)n([O-])c2cc(Cl)c(Cl)cc2[n+]1=O` are 2.18 µM and 4.04 µM.
In the same order, the values of `COc1cc(-c2nccc3[nH]c(-c4ccc5cc[nH]c5c4)nc23)cc(OC)c1OC` are under 0.01 µM and 5.66 µM.
Consider `COc1ccc2nc(NC(=O)C(=O)CC(=O)c3ccc([N+](=O)[O-])cc3)sc2c1`, for which the TGI was over 100 µM.
With `CC(=O)Nc1ccc(C2CC(c3ccc([N+](=O)[O-])cc3)=Nc3ccccc3S2=O)cc1` (configuration not stated), the TGI was determined as 70.5 µM.
For the compound `COCCOC1=C(Cl)C(=O)c2ccccc2C1=O`, the GI50 was 4.55 µM and the TGI came out at 16.8 µM.
On the same counts, the results for `CN1CCN(c2c(F)cc(NC3=C(Cl)C(=O)c4ncccc4C3=O)cc2F)CC1` are 25.2 µM and 72 µM.
In the same order, the values of `Cc1cccc(Cn2cc(CO)c3cnccc32)c1` are over 100 µM and over 100 µM.
As for `O=C(CCCC(=O)Nc1ccc(Cl)cc1Cl)CC(=O)c1ccc2ccccc2c1`, the TGI is over 100 µM.
The same measure, in the same setting: the value for `OC(c1ccccc1Br)(c1ccccc1Br)C(F)(F)F` was over 100 µM.
On the same count and under the same terms, for `CC(=O)OC1COC(N2CCc3cc([N+](=O)[O-])ccc32)C(OC(C)=O)C1OC(C)=O` (configuration not stated) the value was over 100 µM.
The same measure, in the same setting: the value for `CCOC(=O)C1S(=O)(=O)OCCOS1(=O)=O` was over 100 µM.
On to `COc1ccc(C(O)c2cc3c(N)c(C(=O)Nc4cccc5ccccc45)sc3nc2C)cc1` (configuration not stated), for which the GI50 is 0.643 µM and the TGI was over 100 µM.
Turning to `Cc1nc2ccccc2c(=O)n1/N=C(\N=Nc1ccccc1Cl)c1ccccc1Cl`, the TGI was 64.4 µM.
Same read-out and setting: the value for `CCCCCC/C=C\CCCCCCCCC(=O)c1cccc(OC)c1OC` was over 100 µM.

The next experiment concerns OVCAR-3 ovarian. Put plainly: NCI tumour cell line growth inhibition, 48 h.
`CCOC(=O)C1(C)CCC(C(C(=O)O)C(=O)O)CC1=O` (configuration not stated) came in with a TGI of over 100 µM.
Same read-out and setting: the value for `COC(=O)C1=C(C(=O)OC)C2(c3ccccc3)OC1(c1ccccc1)c1cc3ccccc3cc12` was 2.68 µM.
For `[O]=[V]([OH])([OH])[OH]`, the GI50 is over 100 µM and the TGI was over 100 µM.
In the case of `CC1NOC(=O)C1N=Nc1ccc(Cl)cc1Cl` (configuration not stated), the TGI turned out to be 36.9 µM.
`COc1ccc(Nc2cnc3cc(N)cc(N)c3n2)cc1`: the GI50 was 11.4 µM and the TGI turned out to be 27.3 µM.
